Active and inactive are the calls of the source. No cut-off for these calls is given here.
What was measured:
[1] = target: Dual specificity mitogen-activated protein kinase kinase 1 (Homo sapiens, UniProt Q02750); assay: Inhibition of MEK1 in human HT-29 cells assessed as inhibition of ERK phosphorylation by Western blot analysis; assay type: cell-based
[2] = Cmax in human MIAPaCa2 cells expressing K-Ras G12C mutant xenografted nude mouse at 200 mg/kg, po qd; assay type: ADME, organism-based, MIA PaCa-2; set-up: dose 200 mg/kg, route oral; settings: in vivo
[3] = Antitumor activity against human LOX cells expressing B-Raf V600E mutant xenografted in nude mouse assessed as tumor growth inhibition at 200 mg/kg, po bid; assay type: functional; settings: read-out: GI
[4] = AUC (0 to 12 hrs) in human HT-29 cells expressing B-Raf V600E mutant xenografted nude mouse at 100 mg/kg, po bid; assay type: ADME, organism-based; set-up: time < 12 hr, dose 100 mg/kg, route oral; settings: in vivo
NCI-H460 [5] = assay: Antitumor activity against human H460 cells expressing K-Ras Q61H mutant xenografted in nude mouse assessed as tumor growth inhibition at 50 mg/kg, po bid; assay type: functional; settings: read-out: GI
[6] = Cmax in human HT-29 cells expressing B-Raf V600E mutant xenografted nude mouse at 50 mg/kg, po bid; assay type: ADME, organism-based; set-up: dose 50 mg/kg, route oral; settings: in vivo
[7] = Antitumor activity against human LOX cells expressing B-Raf V600E mutant xenografted in nude mouse assessed as tumor growth inhibition at 100 mg/kg, po bid; assay type: functional; settings: read-out: GI
[8] = Plasma concentration in human HT-29 cells expressing B-Raf V600E mutant xenografted nude mouse at 100 mg/kg, po after 8 hrs; assay type: ADME, organism-based; set-up: dose 100 mg/kg, route oral
[9] = AUC (0 to 24 hrs) in human H460 cells expressing K-Ras Q61H mutant xenografted nude mouse at 200 mg/kg, po qd; assay type: ADME, organism-based; set-up: time < 24 hr, dose 200 mg/kg, route oral; settings: in vivo
[10] = target: Dual specificity mitogen-activated protein kinase kinase; MEK1/2 (Homo sapiens) (UniProt P36507+Q02750); settings: HT-29, 2 to 10 uM
Description: Inhibition of MEK1/2 in human HT-29 cells assessed as upregulation of p27 expression at 2 to 10 uM by Western blot analysis

Mus musculus [11] = assay: Average drug concentration in human H460 cells expressing K-Ras Q61H mutant xenografted nude mouse plasma at 200 mg/kg, po qd; assay type: ADME, organism-based; set-up: dose 200 mg/kg, route oral; settings: in vivo
MIA PaCa-2 [12] = assay: Antitumor activity against human MIAPaCa2 cells expressing K-Ras G12C mutant xenografted in nude mouse assessed as tumor growth inhibition at 100 mg/kg, po bid; assay type: functional; settings: read-out: GI
HT-29 = assay: Antitumor activity against human HT-29 cells expressing B-Raf V600E mutant xenografted in nude mouse assessed as tumor growth inhibition at 50 mg/kg, po bid; assay type: functional; settings: read-out: GI
[13] = Plasma concentration in human LOX cells expressing B-Raf V600E mutant xenografted nude mouse at 100 mg/kg, po after 8 hrs; assay type: ADME, organism-based; set-up: dose 100 mg/kg, route oral
[14] = Plasma concentration in human LOX cells expressing B-Raf V600E mutant xenografted nude mouse at 100 mg/kg, po after 1 hr; assay type: ADME, organism-based; set-up: dose 100 mg/kg, route oral
[15] = AUC (0 to 12 hrs) in human LOX cells expressing B-Raf V600E mutant xenografted nude mouse at 12.5 mg/kg, po bid; assay type: ADME, organism-based; set-up: time < 12 hr, dose 12.5 mg/kg, route oral; settings: in vivo
MIA PaCa-2 [16] = assay: Antitumor activity against human MIAPaCa2 cells expressing K-Ras G12C mutant xenografted in nude mouse assessed as tumor growth inhibition at 500 mg/kg, po administered weekly once; assay type: functional; settings: read-out: GI
[17] = Drug level in human LOX cells expressing B-Raf V600E mutant xenografted nude mouse tumor at 100 mg/kg, po after 2 hrs; assay type: ADME, organism-based, Neoplasm; set-up: dose 100 mg/kg, route oral; settings: read-out: Drug uptake
[18] = Cmax in human HT-29 cells expressing B-Raf V600E mutant xenografted nude mouse at 25 mg/kg, po bid; assay type: ADME, organism-based; set-up: dose 25 mg/kg, route oral; settings: in vivo
Mus musculus [19] = assay: Average drug concentration in human H460 cells expressing K-Ras Q61H mutant xenografted nude mouse plasma at 25 mg/kg, po bid; assay type: ADME, organism-based; set-up: dose 25 mg/kg, route oral; settings: in vivo
Mus musculus [20] = assay: Inhibition of MEK-mediated ERK phosphorylation in tumor of human HT-29 cells expressing B-Raf V600E mutant xenografted nude mouse at 50 mg/kg, po after 8 hrs by Western blot analysis relative to control; assay type: functional; settings: HT-29, 8 h
Mus musculus [21] = assay: Toxicity in human HT-29 cells expressing B-Raf V600E mutant xenografted nude mouse assessed as gross signs of adverse effect at 500 mg/kg, po administered weekly once for 3 weeks; assay type: organism-based; set-up: dose 500 mg/kg, route oral; settings: in vivo, 504 h
Mus musculus [22] = assay: Average drug concentration in human MIAPaCa2 cells expressing K-Ras G12C mutant xenografted nude mouse plasma at 50 mg/kg, po bid; assay type: ADME, organism-based, MIA PaCa-2; set-up: dose 50 mg/kg, route oral; settings: in vivo
Mus musculus [23] = assay: Inhibition of MEK-mediated ERK phosphorylation in tumor of human LOX cells expressing B-Raf V600E mutant xenografted nude mouse at 100 mg/kg, po after 1 hr by Western blot analysis relative to control; assay type: functional
Mus musculus [24] = assay: Toxicity in human H460 cells expressing K-Ras Q61H mutant xenografted nude mouse assessed as gross signs of adverse effect at 500 mg/kg, po administered weekly once for 3 weeks; assay type: organism-based; set-up: dose 500 mg/kg, route oral; settings: in vivo, 504 h
Mus musculus [25] = assay: Average drug concentration in human HT-29 cells expressing B-Raf V600E mutant xenografted nude mouse plasma at 25 mg/kg, po bid; assay type: ADME, organism-based; set-up: dose 25 mg/kg, route oral; settings: in vivo
[26] = Cmax in human H460 cells expressing K-Ras Q61H mutant xenografted nude mouse at 50 mg/kg, po bid; assay type: ADME, organism-based; set-up: dose 50 mg/kg, route oral; settings: in vivo
Mus musculus [27] = assay: Toxicity in human MIAPaCa2 cells expressing K-Ras G12C mutant xenografted nude mouse assessed as gross signs of adverse effect at 500 mg/kg, po administered weekly once for 3 weeks; assay type: organism-based, MIA PaCa-2; set-up: dose 500 mg/kg, route oral; settings: in vivo, 504 h
Mus musculus [28] = assay: Inhibition of MEK-mediated ERK phosphorylation in tumor of human LOX cells expressing B-Raf V600E mutant xenografted nude mouse at 100 mg/kg, po after 4 hrs by Western blot analysis relative to control; assay type: functional
[29] = Drug level in human HT-29 cells expressing B-Raf V600E mutant xenografted nude mouse tumor at 50 mg/kg, po after 4 hrs; assay type: ADME, organism-based, Neoplasm; set-up: dose 50 mg/kg, route oral; settings: read-out: Drug uptake
Mus musculus [30] = assay: Inhibition of MEK-mediated ERK phosphorylation in po dosed human HT-29 cells expressing B-Raf V600E mutant xenografted nude mouse tumor by Western blot analysis; assay type: functional, organism-based
Mus musculus [31] = assay: Inhibition of MEK-mediated ERK phosphorylation in po dosed human HT-29 cells expressing B-Raf V600E mutant xenografted nude mouse plasma by Western blot analysis; assay type: functional, organism-based; settings: HT-29, Plasma
[32] = AUC (0 to 12 hrs) in human MIAPaCa2 cells expressing K-Ras G12C mutant xenografted nude mouse at 100 mg/kg, po bid; assay type: ADME, organism-based, MIA PaCa-2; set-up: time < 12 hr, dose 100 mg/kg, route oral; settings: in vivo
[33] = Cmax in human H460 cells expressing K-Ras Q61H mutant xenografted nude mouse at 200 mg/kg, po qd; assay type: ADME, organism-based; set-up: dose 200 mg/kg, route oral; settings: in vivo
Mus musculus [34] = assay: Inhibition of MEK-mediated ERK phosphorylation in tumor of human HT-29 cells expressing B-Raf V600E mutant xenografted nude mouse at 100 mg/kg, po after 8 hrs by Western blot analysis relative to control; assay type: functional; settings: HT-29, 8 h
NCI-H460 [35] = assay: Growth inhibition of human […] mutant by MTT assay; assay type: functional, cell-based
Mus musculus [36] = assay: Average drug concentration in human H460 cells expressing K-Ras Q61H mutant xenografted nude mouse plasma at 100 mg/kg, po bid; assay type: ADME, organism-based; set-up: dose 100 mg/kg, route oral; settings: in vivo
[37] = Plasma concentration in human HT-29 cells expressing B-Raf V600E mutant xenografted nude mouse at 100 mg/kg, po after 4 hrs; assay type: ADME, organism-based; set-up: dose 100 mg/kg, route oral

Sequence of Dual specificity mitogen-activated protein kinase kinase 1 (Q02750 whole entry): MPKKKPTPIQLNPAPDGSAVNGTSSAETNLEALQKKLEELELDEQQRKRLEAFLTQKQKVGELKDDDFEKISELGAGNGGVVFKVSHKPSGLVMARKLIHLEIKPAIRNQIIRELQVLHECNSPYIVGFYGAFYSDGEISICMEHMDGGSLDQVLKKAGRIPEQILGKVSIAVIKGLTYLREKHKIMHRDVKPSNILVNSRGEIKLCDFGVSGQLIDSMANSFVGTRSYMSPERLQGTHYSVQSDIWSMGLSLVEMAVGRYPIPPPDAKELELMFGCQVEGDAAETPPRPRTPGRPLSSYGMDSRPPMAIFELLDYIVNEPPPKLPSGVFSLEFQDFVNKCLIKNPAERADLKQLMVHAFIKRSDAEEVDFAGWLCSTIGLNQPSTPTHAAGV
Sequence of Dual specificity mitogen-activated protein kinase kinase; MEK1/2 (Homo sapiens) (P36507 whole entry, looked up): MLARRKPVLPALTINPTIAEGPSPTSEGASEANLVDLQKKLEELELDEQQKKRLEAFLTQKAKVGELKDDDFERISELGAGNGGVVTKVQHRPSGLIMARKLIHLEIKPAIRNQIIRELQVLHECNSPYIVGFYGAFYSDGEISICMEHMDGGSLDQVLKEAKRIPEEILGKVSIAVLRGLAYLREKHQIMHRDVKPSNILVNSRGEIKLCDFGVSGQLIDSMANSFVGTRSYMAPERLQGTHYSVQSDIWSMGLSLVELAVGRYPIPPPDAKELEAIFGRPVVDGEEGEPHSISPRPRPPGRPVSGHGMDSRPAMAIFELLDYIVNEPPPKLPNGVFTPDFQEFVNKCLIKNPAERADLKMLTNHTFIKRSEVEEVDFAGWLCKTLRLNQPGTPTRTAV
Sequence of Dual specificity mitogen-activated protein kinase kinase; MEK1/2 (Homo sapiens) (Q02750 whole entry, looked up): as the sequence (Q02750 whole entry) above

SMILES: C[C@@H](c1ccccc1)[C@@H](C(=O)Nc1ccc(I)cc1F)N1C(=O)N[C@H](c2ccc(OC[C@H](O)CO)cc2)C1=O
- IC50 [1]: 12 nM
- Cmax [2]: 15500 ng/mL
- inhibition in vivo at 200 mg/kg [3]: > 100%
- AUC at 12 h [4]: 18400 ng·h/mL
- inhibition in vivo at 50 mg/kg (NCI-H460 [5]): 83%
- Cmax [6]: 1300 ng/mL
- inhibition in vivo at 100 mg/kg [7]: > 100%
- concentration at 8 h [8]: 741 ng/mL
- AUC at 24 h [9]: 122000 ng·h/mL
- inhibition [10]: Active
- Cave (Mus musculus [11]): 5083 ng/mL
- inhibition in vivo at 100 mg/kg (MIA PaCa-2 [12]): > 100%
- inhibition in vivo at 50 mg/kg (HT-29): 75%
- concentration at 8 h [13]: 1410 ng/mL
- concentration at 1 h [14]: 4840 ng/mL
- AUC at 12 h [15]: 4660 ng·h/mL
- inhibition in vivo at 500 mg/kg (MIA PaCa-2 [16]): 42%
- concentration at 2 h [17]: 3040 ng/g
- Cmax [18]: 911 ng/mL
- Cave (Mus musculus [19]): 733 ng/mL
- inhibition in vivo at 50 mg/kg (Mus musculus [20]): 12%
- Activity (Mus musculus [21]): Non-toxic
- Cave (Mus musculus [22]): 1567 ng/mL
- inhibition in vivo at 100 mg/kg (Mus musculus [23]): 77%
- Activity (Mus musculus [24]): Non-toxic
- Cave (Mus musculus [25]): 315 ng/mL
- Cmax [26]: 8080 ng/mL
- Activity (Mus musculus [27]): Non-toxic
- inhibition in vivo at 100 mg/kg (Mus musculus [28]): 83%
- concentration at 4 h [29]: 1490 ng/g
- EC50 (Mus musculus [30]): 1001 ng/g
- EC50 (Mus musculus [31]): 3350 nM
- AUC at 12 h [32]: 32700 ng·h/mL
- Cmax [33]: 20700 ng/mL
- inhibition in vivo at 100 mg/kg (Mus musculus [34]): 0%
- IC50 (NCI-H460 [35]): 300 nM
- IC90 (NCI-H460 [35]): 3080 nM
- Cave (Mus musculus [36]): 5242 ng/mL
- concentration at 4 h [37]: 6030 ng/mL

Source: ChEMBL document CHEMBL1955803, “Preclinical in vivo evaluation of efficacy, pharmacokinetics, and pharmacodynamics of a novel MEK1/2 kinase inhibitor RO5068760 in multiple tumor models” (Mol Cancer Ther, 2010)
